The source of these data is patent US20240108740A1, “THERAPEUTIC COMPOSITIONS INCLUDING SPN10 AND USES THEREOF” (Stealth BioTherapeutics Inc., priority 2022, published 2024).

Residues, ends and D or L forms follow the SMILES beside them.

Experiment [1] concerns Ang II-induced hypertensive cardiomyopathy. Nature of the experiment: Ang II (4 weeks) induced cardiac NADPH oxidase, p38 MAPK and apoptosis. In kind it is in vivo. The source says:
It is anticipated that SPN10(s) (with or without aromatic-cationic peptides) or peptide conjugates act downstream of NADPH oxidase and will reduce activation of p38 MAPK and apoptosis in response to Ang II. […] Mitochondrial ROS, either directly, or indirectly by activating apoptosis signal regulating kinase, may induce apoptosis. It is anticipated that Ang II will induce cardiac apoptosis, which will be shown through an increase in cleaved caspase-3.

The test system of a further experiment is Sprague-Dawley rats. Kind of experiment: Example 42: CCl4-induced chronic nephrotoxicity. In kind it is in vivo, rat. From the text: […]
Renal Histology: Kidneys will be fixed in 10% neutral-buffered formalin and embedded in paraffin wax for sectioning. Three-micron sections will be stained with hematoxylin-eosin (H&E) and analyzed by light microscopy by a certified pathologist.

The test system of a further experiment is CD1 mice. Nature of the experiment: Example 52: ATP synthesis following a burn injury (^31P NMR, EPR). In kind it is in vivo, mouse. How it is done:
Material and Methods. Male 6-week-old CD1 mice weighing 20-25 g will be anesthetized by intraperitoneal (i.p.) injection of 40 mg/kg pentobarbital sodium. The left hind limb of all mice in all groups will be shaved. Burn subjects will be subjected to a nonlethal scald injury of 3-5% total body surface area (TBSA) by immersing the left hind limb in 90° C. water for 3 seconds.
NMR spectroscopy is described in detail in Padfield, et al., Proc. Natl. Acad. Sci., 102:5368-5373 (2005). Briefly, mice will be randomized into 1) burn+control vehicle, 2) burn+peptide conjugate, 3) non-burn+control vehicle, 4) non-burn+peptide conjugate, 5) burn+aromatic-cationic peptides, 6) non-burn+aromatic-cationic peptides, 7) burn+SPN10, 8) non-burn+SPN10, 9) burn+SPN10+aromatic-cationic peptides, and 10) non-burn+SPN10+aromatic-cationic peptides groups. […] T1 relaxation times of Pi and phosphocreatine (PCr) will be measured using an inversion recovery pulse sequence in the presence of γ-ATP saturation. […]

Turning to `N=C(N)NCCC[C@H](NC(=O)[C@@H](N)Cc1c[nH]c2ccccc12)C(=O)N[C@@H](Cc1c[nH]c2ccccc12)C(=O)N[C@@H](CCCCN)C(N)=O` [SPN10, H-L-Trp-L-Arg-L-Trp-L-Lys-NH2] (H-WRWK-NH2), the “Ang II-increased cardiac NADPH oxidase activity” value in experiment [1] (4 weeks of Ang II) is “not be changed”. Besides, the “activation of caspase-3 caused by Ang II (cleaved caspase-3)” value in experiment [1] (Ang II) was “completely prevent”. The “phosphorylation of p38 MAPK” value in experiment [1] (Ang II for 4 weeks) was “significantly and nearly fully attenuated”. In addition, the “histopathological changes (H&E) compared to untreated control animals of Group (1)” value in the experiment on Sprague-Dawley rats (rat, in vivo) is reported as “no significant histopathological changes”. Further, the “protection of renal tubules from CCl4 nephrotoxicity” value with Sprague-Dawley rats (s.c. 5 days per week, 7 weeks) is reported as “protect renal tubules from CCl4 nephrotoxicity”. Also, in the experiment with CD1 mice (compared to burn controls), the “ATP synthesis rate in burned mice” value was “significant increase in the ATP synthesis rate”. Moreover, the “ATP synthesis rate in control healthy mice” value with CD1 mice (non-burn) is listed as “increase ATP synthesis rate substantially”.
